From patent publication US8420657B2 (Novartis AG, priority 2008, dated 2013)

Key:
[1] = system: JAK1/JAK2-dependent nuclear translocation of STAT1-GFP in HT1080 fibrosarcoma cells; test: STAT1 nuclear translocation assay (Cellomics), IFN-γ stimulated HT1080 STAT1-GFP cells; assay type: cell-based; details: Homo sapiens, HT-1080, STAT1 translocation pathway
Outline: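 HT1080 cells stably expressing STAT1-GFP, pre-treated 30 min with compound (10 μM–0.003 μM, 0.1% DMSO), then stimulated 2 h with 100 ng/ml IFN-γ, fixed and Hoechst-stained. Nuclear-cytoplasmic GFP differential imaged over ≥1000 cells/well, normalised to unstimulated and DMSO-stimulated wells for IC50.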

GST-JAK2(808-1132) = target: T1, GST-JAK2(808-1132) (Homo sapiens, UniProt O60674); test: JAK2 kinase assay (Caliper mobility shift, LabChip 3000); assay type: biochemical
T1 construct: GST-JAK2(808-1132); purchased Invitrogen (Carlsbad, USA) #4288
Outline: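 Recombinant GST-JAK2(808-1132) kinase domain with FITC-labelled JAK3tide peptide substrate and ATP; 60 min at 30 °C, EDTA stop. Substrate/product ratio read by microfluidic mobility shift; compounds at 8 final concentrations, 10 to 0.003 μM.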

T1 sequence (O60674 808-1132): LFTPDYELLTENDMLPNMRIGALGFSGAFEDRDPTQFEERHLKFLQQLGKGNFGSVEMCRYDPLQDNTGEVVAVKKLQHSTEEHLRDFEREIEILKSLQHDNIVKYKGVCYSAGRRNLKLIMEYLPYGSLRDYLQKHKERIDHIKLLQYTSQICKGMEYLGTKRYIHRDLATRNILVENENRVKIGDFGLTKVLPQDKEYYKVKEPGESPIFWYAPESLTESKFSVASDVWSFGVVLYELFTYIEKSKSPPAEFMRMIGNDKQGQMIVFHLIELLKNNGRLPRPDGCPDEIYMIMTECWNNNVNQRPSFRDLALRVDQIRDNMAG

Structure (SMILES): COc1cc(Nc2ncc3ccn(-c4ccc(CC(=O)N5CCN(C)CC5)cc4)c3n2)ccc1F [Example 150, 2-{4-[2-(4-Fluoro-3-methoxy-phenylamino)-pyrrolo[2,3-d]pyrimidin-7-yl]-phenyl}-1-(4-methyl-piperazin-1-yl)-ethanone]
- IC50 [1]: 64.5 nM
- IC50 (GST-JAK2(808-1132)): 4.5 nM

Structure (SMILES): Cc1cc(Nc2ncc3ccn(-c4ccc(CN5CCOCC5)c(F)c4)c3n2)ccc1F [Example 127, (4-Fluoro-3-methyl-phenyl)-[7-(3-fluoro-4-morpholin-4-ylmethyl-phenyl)-7H-pyrrolo[2,3-d]pyrimidin-2-yl]-amine]
- IC50 [1]: 720 nM
- IC50 (GST-JAK2(808-1132)): 10.5 nM

Structure (SMILES): Cc1cc(Nc2ncc3ccn(-c4ccc(S(C)(=O)=O)cc4)c3n2)ccc1C(=O)N1CCOCC1 [Example 74, {4-[7-(4-Methanesulfonyl-phenyl)-7H-pyrrolo[2,3-d]pyrimidin-2-ylamino]-2-methyl-phenyl}-morpholin-4-yl-methanone]
- IC50 [1]: 75.5 nM
- IC50 (GST-JAK2(808-1132)): < 3 nM

Structure (SMILES): CS(=O)(=O)c1ccc(-n2ccc3cnc(Nc4ccc(F)c(C(F)(F)F)c4)nc32)cc1 [Example 80, (4-Fluoro-3-trifluoromethyl-phenyl)-[7-(4-methanesulfonyl-phenyl)-7H-pyrrolo[2,3-d]pyrimidin-2-yl]-amine]
- IC50 [1]: 10000 nM
- IC50 (GST-JAK2(808-1132)): 430 nM

Structure (SMILES): Cc1ccc(Nc2ncc3cc(C)n(-c4ccc(CN5CCOCC5)c(F)c4)c3n2)cc1C [Example 163, (3,4-Dimethyl-phenyl)-[7-(3-fluoro-4-morpholin-4-ylmethyl-phenyl)-6-methyl-7H-pyrrolo[2,3-d]pyrimidin-2-yl]-amine]
- IC50 [1]: 23500 nM
- IC50 (GST-JAK2(808-1132)): 295 nM

Structure (SMILES): O=C(c1c(F)cc(-n2ccc3cnc(Nc4ccccc4)nc32)cc1F)N1CCOCC1 [Example 214, [2,6-Difluoro-4-(2-phenylamino-pyrrolo[2,3-d]pyrimidin-7-yl)-phenyl]-morpholin-4-yl-methanone]
- IC50 [1]: 643 nM
- IC50 (GST-JAK2(808-1132)): 5.1 nM

Structure (SMILES): O=C(c1c(F)cc(-n2ccc3cnc(Nc4ccc(N5CCNC6(CC6)C5)nc4)nc32)cc1F)N1CCOCC1 [Example 268, (4-{2-[6-(4,7-Diaza-spiro[2.5]oct-7-yl)-pyridin-3-ylamino]-pyrrolo[2,3-d]pyrimidin-7-yl}-2,6-difluoro-phenyl)-morpholin-4-yl-methanone]
- IC50 [1]: 210 nM
- IC50 (GST-JAK2(808-1132)): 7.8 nM

Structure (SMILES): C[C@@H]1CN(Cc2ccc(Nc3ncc4ccn(-c5cc(F)c(C(=O)N6CCOCC6)c(F)c5)c4n3)cc2)[C@@H](C)CN1 (racemic) [Example 261, (4-{2-[4-((2S,5R)-2,5-Dimethyl-piperazin-1-ylmethyl)-phenylamino]-pyrrolo[2,3-d]pyrimidin-7-yl}-2,6-difluoro-phenyl)-morpholin-4-yl-methanone]
- IC50 [1]: 180 nM
- IC50 (GST-JAK2(808-1132)): 12 nM

Structure (SMILES): CN(C)CCNC(=O)c1cccc(Nc2ncc3ccn(-c4ccc(S(C)(=O)=O)cc4)c3n2)c1 [Example 50, N-(2-Dimethylamino-ethyl)-3-[7-(4-methanesulfonyl-phenyl)-7H-pyrrolo[2,3-d]pyrimidin-2-ylamino]-benzamide]
- IC50 [1]: 184 nM
- IC50 (GST-JAK2(808-1132)): < 3 nM

Structure (SMILES): Cc1ccc(Nc2ncc3ccn(-c4cc(F)c(CN5CCOCC5)c(F)c4)c3n2)cc1Cl [Example 128, (3-Chloro-4-methyl-phenyl)-[7-(3,5-difluoro-4-morpholin-4-ylmethyl-phenyl)-7H-pyrrolo[2,3-d]pyrimidin-2-yl]-amine]
- IC50 [1]: 3680 nM
- IC50 (GST-JAK2(808-1132)): 120 nM

Structure (SMILES): Cc1ccc(Nc2ncc3ccn(-c4ccc(C(=O)N5CCN(C)CC5)cc4)c3n2)cc1C [Example 170, {4-[2-(3,4-Dimethyl-phenylamino)-pyrrolo[2,3-d]pyrimidin-7-y]-phenyl}-(4-methyl-piperazin-1-yl)-methanone]
- IC50 [1]: 374 nM
- IC50 (GST-JAK2(808-1132)): 17 nM

Structure (SMILES): Cc1ccc(Nc2ncc3ccn(-c4ccc(S(C)(=O)=O)cc4)c3n2)cc1CN1CCNCC1 [Example 333, [7-(4-Methanesulfonyl-phenyl)-7H-pyrrolo[2,3-d]pyrimidin-2-yl]-(4-methyl-3-piperazin-1-ylmethyl-phenyl)-amine]
- IC50 [1]: 530 nM
- IC50 (GST-JAK2(808-1132)): 3.9 nM

Structure (SMILES): CC(C)Oc1ccc(Nc2ncc3ccn(-c4ccc(C(C)O)cc4)c3n2)cc1 (centres unmarked) [Example 114, 1-{4-[2-(4-Isopropoxy-phenylamino)-pyrrolo[2,3-d]pyrimidin-7-yl]-phenyl}-ethanol]
- IC50 [1]: 202 nM
- IC50 (GST-JAK2(808-1132)): 5.9 nM

Structure (SMILES): CN1CCN(C(=O)c2ccc(Nc3ncc4ccn(-c5ccc(CN6CCOCC6)c(F)c5)c4n3)cc2F)CC1 [Example 158, {2-Fluoro-4-[7-(3-fluoro-4-morpholin-4-ylmethyl-phenyl)-7H-pyrrolo[2,3-d]pyrimidin-2-ylamino]-phenyl}-(4-methyl-piperazin-1-yl)-methanone]
- IC50 [1]: 265 nM
- IC50 (GST-JAK2(808-1132)): 9.4 nM

Structure (SMILES): O=S1(=O)CCN(Cc2c(F)cc(-n3ccc4cnc(Nc5ccccc5)nc43)cc2F)CC1 [Example 180, {7-[4-(1,1-Dioxido-thiomorpholin-4-ylmethyl)-3,5-difluoro-phenyl]-7H-pyrrolo[2,3-d]pyrimidin-2-yl}-phenyl-amine]
- IC50 [1]: 120 nM
- IC50 (GST-JAK2(808-1132)): < 3 nM

Structure (SMILES): CC(C)Oc1ccc(Nc2ncc3ccn(-c4ccc(C5(C(=O)N6CCN(C)CC6)CC5)cc4)c3n2)cc1 [Example 103, (1-{4-[2-(4-Isopropoxy-phenylamino)-pyrrolo[2,3-d]pyrimidin-7-yl]-phenyl}-cyclopropyl)-(4-methyl-piperazin-1-yl)-methanone]
- IC50 [1]: 220 nM
- IC50 (GST-JAK2(808-1132)): < 3 nM

Structure (SMILES): Cc1ccc(Nc2ncc3ccn(-c4ccc(C(=O)N5CCOCC5)c(F)c4)c3n2)cc1CN1CCNCC1 [Example 336, {2-Fluoro-4-[2-(4-methyl-3-piperazin-1-ylmethyl-phenylamino)-pyrrolo[2,3-d]pyrimidin-7-yl]-phenyl}-morpholin-4-yl-methanone]
- IC50 [1]: 205 nM
- IC50 (GST-JAK2(808-1132)): 3.6 nM

Structure (SMILES): CN1CCC(c2ccc(Nc3ncc4ccn(-c5ccc(S(C)(=O)=O)cc5)c4n3)cc2)CC1 [Example 16, [7-(4-Methanesulfonyl-phenyl)-7H-pyrrolo[2,3-d]pyrimidin-2-yl]-[4-(1-methyl-piperidin-4-yl)-phenyl]-amine]
- IC50 [1]: 25 nM
- IC50 (GST-JAK2(808-1132)): < 3 nM

Structure (SMILES): CN1CCN(C(=O)c2ccc(Nc3ncc4ccn(-c5cc(F)c(CN6CCOCC6)c(F)c5)c4n3)cc2C(F)(F)F)CC1 [Example 201, {4-[7-(3. 5-Difluoro-4-morpholin-4-ylmethyl-phenyl)-7H-pyrrolo[2,3-d]pyrimidin-2-ylamino]-2-trifluoromethyl-phenyl}-(4-methyl-piperazin-1-yl)-methanone]
- IC50 [1]: 199 nM
- IC50 (GST-JAK2(808-1132)): < 3 nM

Structure (SMILES): O=C(c1c(F)cc(-n2ccc3cnc(Nc4ccc(CN5CCNC6(CC6)C5)cc4)nc32)cc1F)N1CCOCC1 [Example 257]
- IC50 [1]: 150 nM
- IC50 (GST-JAK2(808-1132)): 10 nM

Structure (SMILES): Cc1ccc(Nc2ncc3ccn(-c4ccc(C(=O)N5CCOCC5)c(C)c4)c3n2)cc1C [Example 294, {4-[2-(3,4-Dimethyl-phenylamino)-pyrrolo[2,3-d]pyrimidin-7-yl]-2-methyl-phenyl}-morpholin-4-yl-methanone]
- IC50 [1]: 415 nM
- IC50 (GST-JAK2(808-1132)): < 3 nM

Structure (SMILES): CCN1CCN(Cc2ccc(-n3ccc4cnc(Nc5ccc(C)c(Cl)c5)nc43)cc2F)CC1 [Example 120, (3-Chloro-4-methyl-phenyl)-{7-[4-(4-ethyl-piperazin-1-ylmethyl)-3-fluoro-phenyl]-7H-pyrrolo[2,3-d]pyrimidin-2-yl}-amine]
- IC50 [1]: 7850 nM
- IC50 (GST-JAK2(808-1132)): 155 nM

Structure (SMILES): Cc1ccc(Nc2ncc3ccn(-c4cc(F)c(CN5CCOCC5)c(F)c4)c3n2)cc1C [Example 289, [7-(3,5-Difluoro-4-morpholin-4-ylmethyl-phenyl)-7H-pyrrolo[2,3-d]pyrimidin-2-yl]-(3,4-dimethyl-phenyl)-amine]
- IC50 [1]: 232 nM
- IC50 (GST-JAK2(808-1132)): < 17 nM

Structure (SMILES): CN1CCN(Cc2ccc(Nc3ncc4ccn(-c5ccc(C(=O)N6CCOCC6)c(F)c5)c4n3)cc2)CC1=O [Example 337, 4-(4-{7-[3-Fluoro-4-(morpholine-4-carbonyl)-phenyl]-7H-pyrrolo[2,3-d]pyrimidin-2-ylamino}-benzyl)-1-methyl-piperazin-2-one]
- IC50 [1]: 185 nM
- IC50 (GST-JAK2(808-1132)): 6.1 nM

Structure (SMILES): C[C@@H]1CN[C@@H](C)CN1c1ccc(Nc2ncc3ccn(-c4ccc(S(C)(=O)=O)cc4)c3n2)cn1 (racemic) [Example 274, [6-((2R,5S)-2,5-Dimethyl-piperazin-1-yl)-pyridin-3-yl]-[7-(4-methanesulfonyl-phenyl)-7H-pyrrolo[2,3-d]pyrimidin-2-yl]-amine]
- IC50 [1]: 520 nM
- IC50 (GST-JAK2(808-1132)): 7.2 nM

Structure (SMILES): CCN1CCN(Cc2ccc(Nc3ncc4ccn(-c5cc(F)c(C(=O)N6CCN(C)CC6)c(F)c5)c4n3)cc2)CC1 [Example 191, (4-{2-[4-(4-Ethyl-piperazin-1-ylmethyl)-phenylamino]-pyrrolo[2,3-d]pyrimidin-7-yl}-2,6-difluoro-phenyl)-(4-methyl-piperazin-1-yl)-methanone]
- IC50 [1]: 3920 nM
- IC50 (GST-JAK2(808-1132)): 28.5 nM

Structure (SMILES): O=S1(=O)CCN(Cc2c(F)cc(-n3ccc4cnc(Nc5ccc(N6CCNCC6)nc5)nc43)cc2F)CC1 [Example 444, {7-[4-(1,1-Dioxido-thiomorpholin-4-ylmethyl)-3,5-difluoro-phenyl]-7H-pyrrolo[2,3-d]pyrimidin-2-yl}-(6-piperazin-1-yl-pyridin-3-yl)-amine]
- IC50 [1]: 90 nM
- IC50 (GST-JAK2(808-1132)): ≤ 3 nM

Structure (SMILES): COc1cc(Nc2ncc3ccn(-c4ccc(C(=O)N5CCOCC5)cc4)c3n2)ccc1C [Example 240, {4-[2-(3-Methoxy-4-methyl-phenylamino)-pyrrolo[2,3-d]pyrimidin-7-yl]-phenyl}-morpholin-4-yl-methanone]
- IC50 [1]: 730 nM
- IC50 (GST-JAK2(808-1132)): 5.2 nM
